Columns and labels:
Assay in all cases: Determination of the minimum inhibitory concentration (MIC value) in microtitre plates
S. aureus = format: cell-based; conditions: optical density at 620 nm, 48 hours at 37° C., MIC = ≦20% growth; tested at 100; 10 and 1 ppm (approximate values); (2), (3), (4) at 120; 60; 30; 15; 7.5; 3.75 ppm
Source text: (§1) Determination of the Minimum Inhibitory Concentration (MIC Value) in Microtitre Plates Nutrient Medium Casein/soybean flour/peptone bouillon for the preparation of preliminary cultures of the test bacteria and yeast. Mycological slant agar for the preliminary culture of moulds Examples of Test Microbes: Bacteria: Staphylococcus hominis DMS 20328 Procedure: The test substances are pre-dissolved in dimethyl sulfoxide (DMSO) and tested in a series of dilutions of 1:2. Bacteria and yeast are cultured overnight in CASO bouillon; the mould is cultured on myco-logical slant agar and sponged off with 10 ml of 0.85% sodium chloride solution (+0.1% Triton X-100). All the test microbes are adjusted to a germ count of 1−5×10^6 KBE/ml using 0.85% sodium chloride solution. The test substances are pre-pipetted into microtitre plates in an amount of 8 μl per well. Pre-diluted microbe suspensions are diluted 1:100 in CASO bouillon (bacteria and yeast) or Sabouraud 2% glucose bouillon (mould) and added to the test substances in an amount of 192 μl per well. The test batches are incubated for 48 hours at 37° C. (bacteria and yeast) or for 5 days at 28° C. (mould). After incubation, the growth is determined by means of the clouding of the test batches (optical density) at 620 nm in a microplate reader. The concentration of substance at which (compared with the growth control) a marked inhibition of growth (≦20% growth) of the test microbes can be observed is given as the minimum inhibitory concentration (MIC value). One microtitre plate is used per test microbe and substance concentration. All substances are tested in duplicate.

P. aeruginosa = format: cell-based, Pseudomonas aeruginosa CIP A-22; conditions: optical density at 620 nm, 48 hours at 37° C., MIC = ≦20% growth; tested at 100; 10 and 1 ppm (approximate values); (2), (3), (4) at 120; 60; 30; 15; 7.5; 3.75 ppm
Procedure: as §1, with “Pseudomonas aeruginosa CIP A-22” for “Staphylococcus hominis DMS 20328”

C. albicans = format: cell-based, Candida albicans ATCC 10231; conditions: optical density at 620 nm, 48 hours at 37° C., MIC = ≦20% growth; tested at 100; 10 and 1 ppm (approximate values); (2), (3), (4) at 120; 60; 30; 15; 7.5; 3.75 ppm
Procedure: as §1, with “Yeast: Candida albicans ATCC 10231” for “Bacteria: Staphylococcus hominis DMS 20328”

E. coli = format: cell-based, Escherichia coli NCTC 8196; conditions: optical density at 620 nm, 48 hours at 37° C., MIC = ≦20% growth; tested at 100; 10 and 1 ppm (approximate values); (2), (3), (4) at 120; 60; 30; 15; 7.5; 3.75 ppm
Procedure: as §1, with “Escherichia coli NCTC 8196” for “Staphylococcus hominis DMS 20328”

A. niger = format: cell-based, Aspergillus niger ATCC 6275; conditions: optical density at 620 nm, 5 days at 28° C., MIC = ≦20% growth; tested at 100; 10 and 1 ppm (approximate values); (2), (3), (4) at 120; 60; 30; 15; 7.5; 3.75 ppm
Procedure: as §1, with “Mould: Aspergillus niger ATCC 6275” for “Bacteria: Staphylococcus hominis DMS 20328”

CCc1csc(/C=C/c2cccc(C)c2O)n1 [Compound of formula (48)]
>100 ppm: MIC values in ppm S. aureus (S. aureus) | MIC values in ppm P. aeruginosa (P. aeruginosa) | MIC values in ppm C. albicans (C. albicans) | MIC values in ppm E. coli (E. coli) | MIC values in ppm A. niger (A. niger)

CCc1csc(/C=C/c2cc(O)c(OC)c(OC)c2)n1 [Compound of formula (46)]
>100 ppm: MIC values in ppm S. aureus (S. aureus) | MIC values in ppm P. aeruginosa (P. aeruginosa) | MIC values in ppm C. albicans (C. albicans) | MIC values in ppm E. coli (E. coli) | MIC values in ppm A. niger (A. niger)

COc1cc(O)ccc1/C=C/c1nc(-c2ccc(N3CCCC3)cc2)cs1 [Compound of formula (38)]
>100 ppm: MIC values in ppm S. aureus (S. aureus) | MIC values in ppm P. aeruginosa (P. aeruginosa) | MIC values in ppm C. albicans (C. albicans) | MIC values in ppm E. coli (E. coli) | MIC values in ppm A. niger (A. niger)

COc1cc(/C=C/c2nc(-c3ccc(F)cc3)cs2)cc(O)c1OC [Compound of formula (11)]
>100 ppm: MIC values in ppm S. aureus (S. aureus) | MIC values in ppm P. aeruginosa (P. aeruginosa) | MIC values in ppm C. albicans (C. albicans) | MIC values in ppm E. coli (E. coli) | MIC values in ppm A. niger (A. niger)

CCOc1cc(/C=C/c2nc(-c3ccc(F)cc3)cs2)ccc1O [Compound of formula (7)]
>100 ppm: MIC values in ppm S. aureus (S. aureus) | MIC values in ppm P. aeruginosa (P. aeruginosa) | MIC values in ppm C. albicans (C. albicans) | MIC values in ppm E. coli (E. coli) | MIC values in ppm A. niger (A. niger)

CCc1csc(/C=C/c2ccc(O)cc2OC)n1 [Compound of formula (50)]
>100 ppm: MIC values in ppm S. aureus (S. aureus) | MIC values in ppm P. aeruginosa (P. aeruginosa) | MIC values in ppm C. albicans (C. albicans) | MIC values in ppm E. coli (E. coli) | MIC values in ppm A. niger (A. niger)

COc1cc(/C=C/c2nc(-c3ccc(N4CCCC4)cc3)cs2)cc(O)c1OC [Compound of formula (34)]
>100 ppm: MIC values in ppm S. aureus (S. aureus) | MIC values in ppm P. aeruginosa (P. aeruginosa) | MIC values in ppm C. albicans (C. albicans) | MIC values in ppm E. coli (E. coli) | MIC values in ppm A. niger (A. niger)

Cc1cc(/C=C/c2nc(-c3ccc(N4CCCC4)cc3)cs2)cc(C)c1O [Compound of formula (35)]
>100 ppm: MIC values in ppm S. aureus (S. aureus) | MIC values in ppm P. aeruginosa (P. aeruginosa) | MIC values in ppm C. albicans (C. albicans) | MIC values in ppm E. coli (E. coli) | MIC values in ppm A. niger (A. niger)

Cc1cccc(/C=C/c2nc(-c3ccc(N4CCCC4)cc3)cs2)c1O [Compound of formula (36)]
>100 ppm: MIC values in ppm S. aureus (S. aureus) | MIC values in ppm P. aeruginosa (P. aeruginosa) | MIC values in ppm C. albicans (C. albicans) | MIC values in ppm E. coli (E. coli) | MIC values in ppm A. niger (A. niger)

COc1ccc(/C=C/c2nc(-c3ccccc3)cs2)cc1O [Compound of formula (52)]
>100 ppm: MIC values in ppm S. aureus (S. aureus) | MIC values in ppm P. aeruginosa (P. aeruginosa) | MIC values in ppm C. albicans (C. albicans) | MIC values in ppm E. coli (E. coli) | MIC values in ppm A. niger (A. niger)

COc1cc(/C=C/c2nc(C(C)(C)C)cs2)ccc1O [Compound of formula (20)]
>100 ppm: MIC values in ppm S. aureus (S. aureus) | MIC values in ppm P. aeruginosa (P. aeruginosa) | MIC values in ppm C. albicans (C. albicans) | MIC values in ppm E. coli (E. coli) | MIC values in ppm A. niger (A. niger)

CCOc1cc(/C=C/c2nc(-c3ccc(N4CCCC4)cc3)cs2)ccc1O [Compound of formula (30)]
>100 ppm: MIC values in ppm S. aureus (S. aureus) | MIC values in ppm P. aeruginosa (P. aeruginosa) | MIC values in ppm C. albicans (C. albicans) | MIC values in ppm E. coli (E. coli) | MIC values in ppm A. niger (A. niger)
